Data as given in PMC11487632 (Molecular Pharmaceutics, 2024).
≈ marks a conversion by molar mass, not a printed value. Like-named read-outs stand apart in the source and are kept apart here. One block for each compound: values may come before it.

Tests used:
[1] = cited from earlier work
[2] = design: method as in previous study; conditions: ref previous study, cited from earlier work; for solubility during the predissolution procedure: presence or absence of cimetidine (CIM) in solution insignificant; for solubility during the codissolution procedure: simultaneous addition of CIM crystal powder
[3] = Pre-dissolution procedure: apparent solubility of pure APIs in buffer with predissolved XAT derivatives (HPLC, Noyes-Whitney fit); format: physicochemical; conditions: for effect of predissolved TPH on API solubility: 5-20 mM TPH in 100 mM phosphate buffer pH 6.8; for effect of predissolved CFN on API solubility: 10-50 mM CFN in 100 mM phosphate buffer pH 6.8; for solubility: phosphate buffer, 25 °C, pH 6.8, aqueous buffer, thermodynamic from solid, read-out: solubility (eq 1); for solubility / saturated concentration (curve fitting eq 1): 100 mM phosphate buffer pH 6.8, 298 K
Description: The sample solution was filtered with a membrane filter (Minisart RC 4 with 0.22 μm pore size; Sartorius, Göttingen, Germany). The fractionation of the API or XAT derivative in the filtrate was performed via HPLC (Shimadzu Co., Kyoto, Japan) using a mobile phase of 25 mM citric acid buffer (pH 3.0):methanol of 3:7 at a flow rate of 1 mL/min.
To assess the apparent solubility of pure APIs in solutions of XAT derivatives, “pre-dissolution procedures” were conducted. […] The API samples, adjusted to exceed saturation, were added to 5 mL of the dissolving medium and shaken in a water bath at 298 K for a specific duration. The concentration of API in the supernatant was measured using HPLC. The solubility concentrations of all APIs were determined from each API’s standard curves. The R-square values of all standard curves are over 0.995.
The dissolution process of the pure APIs or API mixtures assumably corresponded to a linear correlation or a saturation curve. The API samples were homogenized using an agate mortar and pestle to align the particle sizes without sieving, considering the potential contamination of superfine powders. The immediate dissolution of the adhering powders in the solution at t = 0 was assumed; additionally, their concentrations were treated as the initial concentration (C = C0) if a sink condition was applicable owing to the higher solubility of the API.
For curves resembling a saturation curve, nonlinear curve fitting using the Noyes–Whitney integral expression (eq 1) was applied:[48],[49] [drawing 1] 1 where Ceq is the apparent solubility of the API, k is the dissolution rate constant, and S is the surface area of the sample particles. […] Curve-fitting procedures employed the Solver module of Microsoft Excel 2016 with the implemented GRG nonlinear option. The recrystallized precipitates were verified by X-ray powder diffraction (XRPD) and differential scanning calorimetry (DSC); no cocrystals or other generated solids were observed.

[4] = cited from earlier work; remark: listed apart in the source
[5] = Co-dissolution procedure: apparent solubility of API mixtures with CFN, TPH, TBR or XAT (HPLC, Noyes-Whitney fit); format: physicochemical; conditions: for effect of codissolved CFN on API solubility / saturated concentration / effect of codissolved TBR on API dissolution curve / saturated concentration / effect of codissolved TPH on API solubility / saturated concentration / effect of codissolved XAT on API dissolution curve / saturated concentration: equimolar mixture; for increase of XAT-derivative solubility by IBP and DCF (NSAIDs): equimolar IBP or DCF mixtures
[6] = ref 18 (given for CFN and TPH only); cited from earlier work
[7] = ref 18 (given for CFN and TPH only); cited from earlier work; remark: listed apart in the source
[8] = ref 18 (not printed for TBR and XAT); cited from earlier work

Structure (SMILES): Cn1c(=O)c2c(ncn2C)n(C)c1=O [CFN, caffeine]
distribution volume Vd ([1]; CFN): 0.7 L/kg

effect of predissolved TPH on API solubility [3]: enhanced
effect of predissolved CFN on API solubility [3]: enhanced
solubility ([3]; in the absence of CFN (CFN series)): 1760 ± 44 µM (≈ 521 µg/mL)
solubility ([3]; in the absence of TPH (TPH series)): 1690 ± 53 µM (≈ 499 µg/mL)
effect of codissolved CFN on API solubility / saturated concentration ([5]; 100 mM phosphate buffer pH 6.8): increased
effect of codissolved TBR on API dissolution curve / saturated concentration ([5]; 100 mM phosphate buffer pH 6.8): did not significantly differ
effect of codissolved TPH on API solubility / saturated concentration ([5]; 100 mM phosphate buffer pH 6.8): increased
effect of codissolved XAT on API dissolution curve / saturated concentration ([5]; 100 mM phosphate buffer pH 6.8): did not significantly differ
Structure (SMILES): O=C(O)Cc1ccccc1Nc1c(Cl)cccc1Cl [DCF, diclofenac]
effect of famotidine (FAM) on final solubility ([2]; equilibrated solution, FAM delayed dissolution): not affected
solubility during the predissolution procedure [2]: 829 µM (≈ 246 µg/mL)
solubility during the codissolution procedure [2]: 3390 µM (≈ 1000 µg/mL)
solubility ([4]; 50 mM MES buffer (pH 5.5)): ~100 µM (≈ 29.6 µg/mL)
solubility ([4]; 100 mM phosphate buffer (pH 6.45)): approximately 0.7 mM
change of solubility on addition of 10 mM LDC to the dissolution buffer ([4]; within the buffering capacity range): increased

Structure (SMILES): CC(C)Cc1ccc([C@H](C)C(=O)O)cc1 [IBP, (S)-(+)-ibuprofen]
effect of predissolved TPH on API solubility [3]: did not influence
effect of predissolved CFN on API solubility [3]: did not influence
saturated concentration (curve fitting eq 1) ([3]; predissolved CFN series, irrespective of CFN): 17.22 ± 0.61 mM
saturated concentration (curve fitting eq 1) ([3]; predissolved TPH series, irrespective of TPH): 17.34 ± 0.86 mM
solubility ([4]; 25 mM phosphate buffer (pH 6.88)): ~20000 µM (≈ 4130 µg/mL)
solubility ([4]; 100 mM phosphate buffer (pH 7.18)): approximately 40 mM
change of solubility in mixtures with lidocaine (LDC) ([4]; mixtures with LDC, without pH fluctuations): reduced
effect of codissolved CFN on API solubility / saturated concentration ([5]; 100 mM phosphate buffer pH 6.8): decreased
effect of codissolved TBR on API dissolution curve / saturated concentration ([5]; 100 mM phosphate buffer pH 6.8): did not significantly affect
effect of codissolved TPH on API solubility / saturated concentration ([5]; 100 mM phosphate buffer pH 6.8): decreased
effect of codissolved XAT on API dissolution curve / saturated concentration ([5]; 100 mM phosphate buffer pH 6.8): did not significantly affect

effect of CFN added to the dissolving medium on solubility ([3]; data not published): enhanced
Structure (SMILES): COc1ccc2c(c1)c(CC(=O)O)c(C)n2C(=O)c1ccc(Cl)cc1 [INM, indomethacin]
solubility during the predissolution procedure [2]: 625 µM (≈ 224 µg/mL)
solubility during the codissolution procedure [2]: 3340 µM (≈ 1200 µg/mL)

solubility ([5]; 25 °C, aqueous buffer, thermodynamic from solid, pure, 100 mM phosphate buffer pH 6.8, read-out: solubility of the pure XAT derivative): 1000 µM (≈ 180 µg/mL)
increase of XAT-derivative solubility by IBP and DCF (NSAIDs) [5]: 3 fold
Structure (SMILES): Cn1cnc2c1c(=O)[nH]c(=O)n2C [TBR, theobromine]
water solubility [6]: 2000 µM (≈ 360 µg/mL)
log P [7]: −0.78
pKa [8]: 10.05

Structure (SMILES): Cn1c(=O)c2[nH]cnc2n(C)c1=O [TPH, theophylline]
water solubility [6]: 40000 µM (≈ 7210 µg/mL)
log P [7]: 0.00
distribution volume Vd ([1]; TPH, no reference given): 0.5 L/kg
therapeutic range in the blood ([1]; narrow therapeutic range): 0.06 to 0.11 mmol/L
effect of IBP on saturation concentration of the XAT derivative ([5]; equimolar mixtures with IBP, effect of DCF greater than that of IBP): increased

increase of XAT-derivative solubility by IBP and DCF (NSAIDs) [5]: 2 fold
Structure (SMILES): O=c1[nH]c(=O)c2[nH]cnc2[nH]1 [XAT, xanthine]
